pIC50: −log10 of the molar value. Read-outs that look alike come from different tables or passages of the source.
Tests used:
FLT3 = target: T1, FLT3 (Homo sapiens, UniProt P36888); format: binding; settings: for IC50: Table 1 kinase panel, read-out: IC50 (nM) FLT3; for pIC50: Table 4, read-out: Acute Myeloid Leukemia Kinases FLT3 IC50
T1 construct: made in house
T1 sequence (P36888 27-993): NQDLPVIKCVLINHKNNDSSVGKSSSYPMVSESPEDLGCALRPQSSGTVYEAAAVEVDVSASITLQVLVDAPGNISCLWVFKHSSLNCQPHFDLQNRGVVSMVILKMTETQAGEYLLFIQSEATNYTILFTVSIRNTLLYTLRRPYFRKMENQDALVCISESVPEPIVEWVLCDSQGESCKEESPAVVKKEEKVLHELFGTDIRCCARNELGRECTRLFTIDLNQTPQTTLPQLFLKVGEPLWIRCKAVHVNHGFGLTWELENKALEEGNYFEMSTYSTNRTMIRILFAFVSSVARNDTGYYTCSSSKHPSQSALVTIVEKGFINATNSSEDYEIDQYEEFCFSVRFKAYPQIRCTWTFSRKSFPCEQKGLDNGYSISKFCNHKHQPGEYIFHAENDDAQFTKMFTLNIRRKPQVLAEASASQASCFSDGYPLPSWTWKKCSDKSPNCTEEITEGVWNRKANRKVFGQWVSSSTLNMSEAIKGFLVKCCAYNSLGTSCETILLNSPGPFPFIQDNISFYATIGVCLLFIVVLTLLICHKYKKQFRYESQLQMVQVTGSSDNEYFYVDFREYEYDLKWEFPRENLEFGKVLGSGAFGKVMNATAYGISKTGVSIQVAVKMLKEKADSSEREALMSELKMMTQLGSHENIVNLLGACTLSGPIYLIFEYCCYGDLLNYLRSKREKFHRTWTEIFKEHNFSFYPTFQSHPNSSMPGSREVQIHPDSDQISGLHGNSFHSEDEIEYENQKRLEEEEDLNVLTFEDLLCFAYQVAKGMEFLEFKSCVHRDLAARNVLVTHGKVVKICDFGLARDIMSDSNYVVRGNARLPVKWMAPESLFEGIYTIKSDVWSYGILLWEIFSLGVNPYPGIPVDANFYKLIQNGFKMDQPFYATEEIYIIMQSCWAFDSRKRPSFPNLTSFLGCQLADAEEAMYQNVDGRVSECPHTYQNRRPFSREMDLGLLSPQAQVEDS
Method: Cannabis flavonoids and their analogs were subjected to kinase inhibition assay. The compounds were first screened at a single concentration of 10 μM in the primary assay. […] To determine the kd or IC50 values, competition binding assays were established, authenticated and executed as described previously. […] See also, Karaman et al., “A Quantitative Analysis Of Kinase Inhibitor Selectivity”, Nat. Biotechnol. […] For most assays, kinases were fused to T7 phage strains (Fabian, supra) and for the other assays, kinases were produced in HEK-293 cells after which they were tagged with DNA for quantitative PCR detection. In general, full-length constructs were used for small, single domain kinases, and catalytic domain constructs for large multi-domain kinases. […] The liganded beads were blocked with excess biotin and washed with blocking buffer (SeaBlock (Pierce), 1% BSA, 0.05% Tween 20, 1 mM DTT) to remove unbound ligand and to reduce non-specific phage binding. […] All reactions were performed in polypropylene 384-well plates in a final volume of 0.04 ml. […] The kinase concentration in the eluates was measured by quantitative PCR. An illustration of the kinase interaction process is presented below. Kd/IC50 values were determined using a standard dose response curve using the hill equation. Curves were fitted using a non-linear least square fit with the Levenberg-Marquardt algorithm.

MV4-11 (Leukemia) = test: WST-1 anticancer cell proliferation assay, MV4-11; format: cell-based; settings: for IC50: Table 3, 72 hours, WST-1, read-out: IC50 (μM) MV4-11 (Leukemia); for pIC50: Table 4, read-out: Acute Myeloid Leukemia cell lines MV4-11 IC50
Method: (§1) Anticancer activity was tested against several standard cancer cell lines including brain, breast, Kaposi sarcoma, leukemia, lung, melanoma, tenosynovial giant cell tumor, ovarian, pancreatic, colon and prostate cancer. Cells were trypsinized and plated into 96 well plates in 50 μl of media and incubated overnight. The next day approximately 18 hours after plating, 50 μl of media containing the required flavonoid-based pharmaceutical composition was added per well. Cells were plated at a density so that 72 hours post drug addition, the cells will be in log phase (500)-2000 cells/well). The compounds and extracts were solubilized in Dimethyl sulfoxide (DMSO). The cells are allowed to proliferate for 72 hours 37° C. in humidified atmosphere of 5% CO2. The experiment is terminated using WST-1 (Roche®) 10 μl per well and absorbance is read at 450 nm %690 nm. The effect of drugs on growth is assessed as percent of cell viability. The IC50 values were determined from the extract dose versus control growth curves using Graphpad Prism® software. All experiments were carried out in duplicate and the mean results determined.

Normal Bone marrow = test: Cell viability, normal bone marrow; format: cell-based; settings: Table 4
Method: as §1, with “Bioactivity of the above-described compounds has been verified by an anticancer cell proliferation assay using the WST-1 (4-[3-(4-iodophenyl)-2-(4-nitrophenyl)-2H-5-tetrazolio]-1, 3-benzene disulfonate) colorimetric assay by Roche Life Sciences®. Anticancer” for “Anticancer”

[1] = test system: THP-1 acute myeloid leukemia cell line; test: WST-1 anticancer cell proliferation assay, THP-1; format: cell-based; settings: Table 4; read-out: Acute Myeloid Leukemia cell lines THP-1 IC50
Method: as §1

[2] = test system: MOLM-14 acute myeloid leukemia cell line; test: WST-1 anticancer cell proliferation assay, MOLM-14; format: cell-based; settings: Table 4; read-out: Acute Myeloid Leukemia cell lines MOLM-14 IC50
Method: as §1

SMILES	IC50 (FLT3) [nM]	IC50 (MV4-11 (Leukemia)) [µM]	pIC50 (Normal Bone marrow)	pIC50 [1]	pIC50 (MV4-11 (Leukemia))	pIC50 [2]	pIC50 (FLT3)
COc1cc(-c2cc(=O)c3c(O)c(C/C=C(\C)CCC=C(C)C)c(O)cc3o2)ccc1O [FBL-03A]	> 20000						
COc1cc(-c2cc(=O)c3c(O)c(CC=C(C)C)c(O)cc3o2)ccc1O [FBL-03B]	41.9	1.43					
COc1cc(-c2cc(=O)c3c(O)cc(O)c(C/C=C(\C)CCC=C(C)C)c3o2)ccc1O [FBL-03C]	> 20000						
COc1ccc(-c2cc(=O)c3c(O)c(C/C=C(\C)CCC=C(C)C)c(O)cc3o2)cc1OC [FBL-03D]	> 30000						
COc1cc(-c2cc(=O)c3c(O)cc(O)c(CC=C(C)C)c3o2)ccc1O [FBL-03G]	44	3.1					
COc1ccc(C2CC(=O)c3c(O)cc(O)cc3O2)cc1O (stereo not shown) [FBLGS-74]			< 4.00	< 4.00	< 4.00	< 4.00	4.78
O=c1cc(-c2ccccc2)oc2cc(O)cc(O)c12 [FBLGS-75]			< 4.00	< 4.00	5.36	5.34	6.66
Cc1cc2oc(-c3cccc(N)c3)cc(=O)c2c([N+](=O)[O-])c1C [FBLGS-76]			< 4.00	< 4.00	5.72	5.64	6.06
O=c1cc(-c2ccc(O)c(O)c2)oc2cc(O)cc(O)c12 [FBLGS-77]			< 4.00	< 4.00	5.14	5.13	5.88
COc1cc(O)c2c(=O)c(O)c(-c3ccc(O)c(O)c3)oc2c1 [FBLGS-78]			< 4.00	< 4.00	5.25	5.24	6.51
COc1cc(O)c2c(=O)c(O)c(-c3ccc(O)c(O)c3)oc2c1 [FBLGS-79]			< 4.00	< 4.00	5.47	5.32	7.60
COc1cc(O)c2c(=O)c(O)c(-c3ccc(O)c(OC)c3)oc2c1 [FBLGS-80]			< 4.00	< 4.00	5.23	5.21	7.22
COc1cc(-c2oc3cc(O)ccc3c(=O)c2O)ccc1O [FBLGS-81]			< 4.00	< 4.00	6.05	6.15	8.72
O=C1CC(c2ccc(O)c(O)c2)Oc2cc(O)cc(O)c21 (stereo not shown) [FBLGS-82]			< 4.00	< 4.00	< 5.00	< 5.00	4.76
O=c1c(O)c(-c2ccc(O)c(O)c2)oc2cc(O)ccc12 [FBLGS-83]				4.89	5.80	5.63	6.24
O=c1c(O)c(-c2ccc(O)c(O)c2)oc2cc(O)cc(O)c12 [FBLGS-84]			< 4.00		5.20	5.13	6.09
COc1cc(-c2cc(=O)c3c(O)c(OC)c(OC)cc3o2)ccc1O [FBLGS-85]			< 4.00	< 4.00	6.05	5.82	7.30
COc1cc(-c2cc(=O)c3c(O)c(OC)c(O)cc3o2)ccc1O [FBLGS-86]			< 4.00	< 4.00	5.66	5.51	7.13

Source: patent US20180353462A1, “[…] AGENTS […] FLAVONOID DERIVATIVES TARGETING KINASES, SIRTUINS AND ONCOGENIC AGENTS FOR THE TREATMENT OF CANCERS” (priority 2015, published 2018)
